Experimental data reported in US20260167619A2, “INDOLINE COMPOUNDS AND DERIVATIVES AS EGFR INHIBITORS” (BeOne Medicines I GmbH, priority 2020, published 2026).

How the values were obtained:
BaF3-WT cells = BaF3-WT cells (Homo sapiens, UniProt P00533); test: Cell antiproliferation assay (CellTiter-Glo), BaF3-WT; assay type: cell-based; details: 48 h treatment, read-out: BaF3-WT IC50
Description: (§1) BaF3 cells are treated with compounds diluted in 0.2% DMSO, dilution is done according to the following protocol: (1) make 500× stock solution in DMSO from 5 mM by 5-fold dilution, total 8 doses were included; (2) make 10× solution in cell culture medium by transferring 2 μl 500× stock solution into 98 μl medium; (3) 10 μl of 10× solution is added to cells and incubate for 48 h.
(§2) After 48 h treatment, add 30 μl CellTiter-Glo reagent[CellTiter-Glo® 2.0, (Promega, Cat #G9242)] to each well; seal the plate and incubate 2 min at room temperature on a plate shaker; Allow the plate to incubate at room temperature for 10 minutes to stabilize the luminescent signal. Record luminescence on BMG PheraStar with luminescence protocol.
(§3) The IC50 value of a compound can be obtained by fitting the following equation
(§4) Wherein, X and Y are known values, and IC50, Hillslope, Top and Bottom are the parameters obtained by fitting with software. Y is the inhibition percentage (calculated from the equation), X is the concentration of the compound; IC50 is the concentration of the compound when the 50% inhibition is reached. The smaller the IC50 value is, the stronger the inhibitory ability of the compound is. Vice versa, the higher the IC50 value is, the weaker the ability the inhibitory ability of the compound is; Hillslope represents the slope of the fitted curve, generally around 1 *; Bottom represents the minimum value of the curve obtained by data fitting, which is generally 0%±20%; Top represents the maximum value of the curve obtained by data fitting, which is generally 100%±20%. The experimental data were fitted by calculating and analyzing with Dotmatics data analysis software.

[1] = biological target: T1, EGFR(L858R_T790M_C797S) (aa695-end, Invitrogen) (Homo sapiens, UniProt P00533, C797S/L858R/T790M); test: Biochemical EGFR inhibition assay (TR-FRET), L858R/T790M/C797S mutant; details: ATP at Km, 15 min pre-incubation, 60 min reaction; read-out: LR_TM_CS (Km ATP) IC50
T1 construct: purchased Invitrogen
How it was run: (§5)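 TR-FRET readout (665/620 nm ratio, Eu-cryptate anti-phosphotyrosine plus XL665-streptavidin) of biotin-poly GT phosphorylation after 60 min at room temperature, ATP at Km, following 15 min compound pre-incubation with enzyme in pH 7.5 HEPES/MgCl2 buffer; four-parameter logistic fitting gave IC50.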

BaF3-Del_TM_CS cells = BaF3-Del_TM_CS cells (Homo sapiens, UniProt P00533, T790M/C797S, cells depend on it, form not given); test: Cell antiproliferation assay (CellTiter-Glo), BaF3-Del_TM_CS; assay type: cell-based; details: 48 h treatment, read-out: BaF3-Del_TM_CS IC50
Description: as §1, §2, §3, §4

BaF3-LR_TM_CS cells = BaF3-LR_TM_CS cells (Homo sapiens, UniProt P00533, T790M/C797S/L858R, cells depend on it); test: Cell antiproliferation assay (CellTiter-Glo), BaF3-LR_TM_CS; assay type: cell-based; details: 48 h treatment, read-out: BaF3-LR_TM_CS IC50
Description: as §1, §2, §3, §4

[2] = biological target: EGFR(Dell9_T790M_C797S) (aa 669-1210, in house) (Homo sapiens, UniProt P00533, T790M/C797S, form not given); test: Biochemical EGFR inhibition assay (TR-FRET), Del19/T790M/C797S mutant; details: ATP at Km, 15 min pre-incubation, 60 min reaction; read-out: Del_TM_CS (Km ATP) IC50
How it was run: as §5

[3] = biological target: T2, EGFR (aa668-1210, Invitrogen) (Homo sapiens, UniProt P00533); test: Biochemical EGFR inhibition assay (TR-FRET), wild-type EGFR; details: ATP at Km, 15 min pre-incubation, 60 min reaction; read-out: WT (Km ATP) IC50
T2 construct: EGFR (aa668-1210, Invitrogen); purchased Invitrogen
How it was run: as §5

Sequence of BaF3-LR_TM_CS cells (P00533 whole entry T790M/C797S/L858R): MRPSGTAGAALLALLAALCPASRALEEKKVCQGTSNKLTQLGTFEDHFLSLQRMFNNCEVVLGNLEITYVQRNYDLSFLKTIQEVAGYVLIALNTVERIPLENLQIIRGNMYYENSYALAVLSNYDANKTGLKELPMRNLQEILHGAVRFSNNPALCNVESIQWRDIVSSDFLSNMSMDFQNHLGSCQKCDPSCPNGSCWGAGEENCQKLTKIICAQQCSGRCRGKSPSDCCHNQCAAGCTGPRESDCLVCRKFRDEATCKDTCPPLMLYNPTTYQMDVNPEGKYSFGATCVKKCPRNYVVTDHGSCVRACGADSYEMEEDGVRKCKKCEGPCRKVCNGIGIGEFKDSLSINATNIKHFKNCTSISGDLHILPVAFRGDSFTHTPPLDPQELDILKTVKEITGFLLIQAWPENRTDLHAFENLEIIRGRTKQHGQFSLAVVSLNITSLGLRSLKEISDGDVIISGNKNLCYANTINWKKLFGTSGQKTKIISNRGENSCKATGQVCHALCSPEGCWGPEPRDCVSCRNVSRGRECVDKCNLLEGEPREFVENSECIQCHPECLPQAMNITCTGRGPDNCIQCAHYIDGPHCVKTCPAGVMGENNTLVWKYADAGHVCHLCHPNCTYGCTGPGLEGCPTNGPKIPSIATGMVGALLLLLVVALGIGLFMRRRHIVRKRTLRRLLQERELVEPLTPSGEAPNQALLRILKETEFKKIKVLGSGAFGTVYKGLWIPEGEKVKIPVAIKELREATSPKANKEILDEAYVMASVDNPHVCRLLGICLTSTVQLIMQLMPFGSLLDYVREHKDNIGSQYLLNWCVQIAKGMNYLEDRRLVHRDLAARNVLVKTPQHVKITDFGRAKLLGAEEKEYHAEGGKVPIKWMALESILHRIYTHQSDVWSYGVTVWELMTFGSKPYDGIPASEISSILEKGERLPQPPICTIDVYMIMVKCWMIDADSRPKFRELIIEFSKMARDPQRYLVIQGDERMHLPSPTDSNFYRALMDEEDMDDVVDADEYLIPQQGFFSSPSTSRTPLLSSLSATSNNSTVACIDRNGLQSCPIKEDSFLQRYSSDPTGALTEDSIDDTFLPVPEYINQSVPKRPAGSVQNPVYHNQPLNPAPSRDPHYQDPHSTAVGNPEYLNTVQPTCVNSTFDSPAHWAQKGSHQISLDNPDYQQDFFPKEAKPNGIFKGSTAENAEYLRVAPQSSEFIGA
Sequence of BaF3-Del_TM_CS cells (P00533 with tags, fused parts or gaps DEL746-750/T790M/C797S, form open): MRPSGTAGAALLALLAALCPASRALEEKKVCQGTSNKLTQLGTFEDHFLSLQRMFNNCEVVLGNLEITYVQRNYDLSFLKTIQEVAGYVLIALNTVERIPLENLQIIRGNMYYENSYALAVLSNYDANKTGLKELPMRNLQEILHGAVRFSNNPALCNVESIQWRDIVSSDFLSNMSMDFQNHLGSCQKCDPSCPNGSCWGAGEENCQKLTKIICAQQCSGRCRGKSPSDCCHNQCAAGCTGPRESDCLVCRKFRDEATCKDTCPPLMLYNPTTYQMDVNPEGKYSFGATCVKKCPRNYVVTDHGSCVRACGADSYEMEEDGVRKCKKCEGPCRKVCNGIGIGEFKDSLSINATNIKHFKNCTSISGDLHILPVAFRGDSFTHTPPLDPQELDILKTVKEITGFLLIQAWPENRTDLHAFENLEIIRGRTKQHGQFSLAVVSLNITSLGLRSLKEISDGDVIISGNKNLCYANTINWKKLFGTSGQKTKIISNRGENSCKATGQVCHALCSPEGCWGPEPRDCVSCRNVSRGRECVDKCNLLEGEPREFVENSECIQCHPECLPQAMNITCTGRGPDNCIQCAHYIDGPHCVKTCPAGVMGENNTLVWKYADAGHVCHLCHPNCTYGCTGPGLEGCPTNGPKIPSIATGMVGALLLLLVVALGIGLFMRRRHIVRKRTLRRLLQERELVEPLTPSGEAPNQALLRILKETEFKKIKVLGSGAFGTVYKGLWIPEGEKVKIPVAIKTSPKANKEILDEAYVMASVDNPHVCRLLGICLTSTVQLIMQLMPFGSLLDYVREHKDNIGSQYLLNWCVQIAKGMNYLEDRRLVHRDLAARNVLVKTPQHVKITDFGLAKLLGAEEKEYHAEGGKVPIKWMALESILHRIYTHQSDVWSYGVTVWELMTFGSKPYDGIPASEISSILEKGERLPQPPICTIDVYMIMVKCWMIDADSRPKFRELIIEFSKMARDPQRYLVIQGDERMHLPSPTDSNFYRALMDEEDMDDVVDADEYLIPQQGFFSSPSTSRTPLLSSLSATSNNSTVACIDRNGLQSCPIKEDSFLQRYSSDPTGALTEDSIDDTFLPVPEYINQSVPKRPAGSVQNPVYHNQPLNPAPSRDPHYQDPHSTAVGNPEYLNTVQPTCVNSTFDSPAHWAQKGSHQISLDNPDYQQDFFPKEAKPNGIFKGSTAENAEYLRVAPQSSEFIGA
Sequence of EGFR(Dell9_T790M_C797S) (aa 669-1210, in house) (P00533 with tags, fused parts or gaps DEL746-750/T790M/C797S, form open): as above
T2 sequence (P00533 668-1210): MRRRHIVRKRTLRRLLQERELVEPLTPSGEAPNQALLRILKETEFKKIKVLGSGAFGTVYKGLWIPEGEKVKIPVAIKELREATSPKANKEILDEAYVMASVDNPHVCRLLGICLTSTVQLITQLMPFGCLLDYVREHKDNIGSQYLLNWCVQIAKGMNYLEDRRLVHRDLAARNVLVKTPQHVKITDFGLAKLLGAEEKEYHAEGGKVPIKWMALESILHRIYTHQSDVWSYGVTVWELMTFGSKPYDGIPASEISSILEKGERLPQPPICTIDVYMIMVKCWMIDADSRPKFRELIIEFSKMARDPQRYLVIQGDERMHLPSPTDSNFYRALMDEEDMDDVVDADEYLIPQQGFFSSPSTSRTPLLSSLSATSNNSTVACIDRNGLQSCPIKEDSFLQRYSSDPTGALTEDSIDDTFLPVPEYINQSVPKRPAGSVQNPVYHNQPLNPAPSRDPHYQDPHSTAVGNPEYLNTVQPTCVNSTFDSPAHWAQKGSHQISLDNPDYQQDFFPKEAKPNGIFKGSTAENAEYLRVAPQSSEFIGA
T1 sequence (P00533 695-1210 T790M/C797S/L858R): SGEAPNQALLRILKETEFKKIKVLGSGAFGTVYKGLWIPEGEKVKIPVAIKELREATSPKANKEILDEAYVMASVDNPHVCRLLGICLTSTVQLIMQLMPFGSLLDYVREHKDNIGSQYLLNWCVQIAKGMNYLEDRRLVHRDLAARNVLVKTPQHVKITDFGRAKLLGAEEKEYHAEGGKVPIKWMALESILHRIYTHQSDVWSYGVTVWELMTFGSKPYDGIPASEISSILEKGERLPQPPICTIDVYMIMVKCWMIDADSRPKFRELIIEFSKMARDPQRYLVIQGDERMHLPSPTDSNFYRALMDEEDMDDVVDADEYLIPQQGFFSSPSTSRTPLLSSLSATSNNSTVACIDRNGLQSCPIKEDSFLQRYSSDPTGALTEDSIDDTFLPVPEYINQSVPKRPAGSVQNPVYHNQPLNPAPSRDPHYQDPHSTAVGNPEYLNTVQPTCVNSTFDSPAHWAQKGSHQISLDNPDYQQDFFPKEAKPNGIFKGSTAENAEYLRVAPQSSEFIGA

In the case of `COc1cc(N2CCC(N3CCN(C)CC3)CC2)ccc1Nc1ncc(C)c(Nc2cccc3c2N(S(C)(=O)=O)CC3)n1` [Example 35, N^2-(2-methoxy-4-(4-(4-methylpiperazin-1-yl)piperidin-1-yl)phenyl)-5-methyl-N^4-(1-(methylsulfonyl)indolin-7-yl)pyrimidine-2,4-diamine], the GI50 (BaF3-WT cells) is reported as 604 nM, the IC50 [1] is reported as 0.14 nM and the GI50 (BaF3-Del_TM_CS cells) is reported as 79.9 nM. The GI50 (BaF3-LR_TM_CS cells) was 222 nM, the IC50 [2] was 0.14 nM and the IC50 [3] was 0.23 nM.

Molecule `COc1cc(N2CCC(N(C)C)CC2)ccc1Nc1ncc(Cl)c(Nc2cccc3c2N(S(C)(=O)=O)CC3)n1` [Example 36, 5-chloro-N^2-(4-(4-(dimethylamino)piperidin-1-yl)-2-methoxyphenyl)-N^4-(1-(methylsulfonyl)indolin-7-yl)pyrimidine-2,4-diamine] has a GI50 (BaF3-WT cells) of 414 nM, an IC50 [1] of 0.41 nM and a GI50 (BaF3-Del_TM_CS cells) of 10 nM. For the same molecule, the GI50 (BaF3-LR_TM_CS cells) was 25.9 nM, the IC50 [2] was 0.22 nM and the IC50 [3] was 0.56 nM.

`COc1cc(N2CCC(N3CCN(C)CC3)CC2)c(C)cc1Nc1ncc(Cl)c(Nc2cccc3c2N(S(C)(=O)=O)CC3)n1` [Example 39, 5-chloro-N^2-(2-methoxy-5-methyl-4-(4-(4-methylpiperazin-1-yl)piperidin-1-yl)phenyl)-N^4-(1-(methylsulfonyl)indolin-7-yl)pyrimidine-2,4-diamine] showed a GI50 (BaF3-WT cells) of 500 nM, an IC50 [1] of 0.28 nM and a GI50 (BaF3-Del_TM_CS cells) of 4.54 nM. For the same molecule, the GI50 (BaF3-LR_TM_CS cells) was 11.4 nM, the IC50 [2] was 0.35 nM and the IC50 [3] was 0.36 nM.

`COc1cc(N2CCC(N3CCN(C)CC3)CC2)c(C)cc1Nc1ncc(Br)c(Nc2cccc3c2N(S(C)(=O)=O)CC3)n1` [Example 40, 5-bromo-N^2-(2-methoxy-5-methyl-4-(4-(4-methylpiperazin-1-yl)piperidin-1-yl)phenyl)-N^4-(1-(methylsulfonyl)indolin-7-yl)pyrimidine-2,4-diamine] showed a GI50 (BaF3-WT cells) of 230 nM, an IC50 [1] of 0.21 nM and a GI50 (BaF3-Del_TM_CS cells) of 1.56 nM. The GI50 (BaF3-LR_TM_CS cells) was 4.91 nM, the IC50 [2] was 0.36 nM and the IC50 [3] was 0.78 nM.

In the case of `CCc1cc(Nc2ncc(Cl)c(Nc3cccc4c3N(S(C)(=O)=O)CC4)n2)c(OC)cc1N1CCC(N2CCN(C)CC2)CC1` [Example 41, 5-chloro-N^2-(5-ethyl-2-methoxy-4-(4-(4-methylpiperazin-1-yl)piperidin-1-yl)phenyl)-N^4-(1-(methylsulfonyl)indolin-7yl)pyrimidine-2,4-diamine], the GI50 (BaF3-WT cells) is reported as 610 nM, the IC50 [1] is reported as 0.67 nM and the GI50 (BaF3-Del_TM_CS cells) is reported as 6.06 nM. For the same molecule, the GI50 (BaF3-LR_TM_CS cells) was 15.4 nM, the IC50 [2] was 0.51 nM and the IC50 [3] was 0.81 nM.

`CN(C)C1CCN(c2ccc(Nc3ncc(Cl)c(Nc4cccc5c4N(S(C)(=O)=O)CC5)n3)c3c2CCO3)CC1` [Example 47, 5-chloro-N^2-(4-(4-(dimethylamino)piperidin-1-yl)-2,3-dihydrobenzofuran-7-yl)-N^4-(1-(methylsulfonyl)indolin-7-yl)pyrimidine-2,4-diamine] gave a GI50 (BaF3-WT cells) of 630 nM, an IC50 [1] of 0.85 nM and a GI50 (BaF3-Del_TM_CS cells) of 12.3 nM. For the same molecule, the GI50 (BaF3-LR_TM_CS cells) was 37.8 nM, the IC50 [2] was 0.3 nM and the IC50 [3] was 3.8 nM.

`CN(C)C1CCN(c2ccc(Nc3ncc(Br)c(Nc4cccc5c4N(S(C)(=O)=O)CC5)n3)c3c2CCO3)CC1` [Example 48, 5-bromo-N^2-(4-(4-(dimethylamino)piperidin-1-yl)-2,3-dihydrobenzofuran-7-yl)-N^4-(1-(methylsulfonyl)indolin-7-yl)pyrimidine-2,4-diamine] showed a GI50 (BaF3-WT cells) of 361 nM, an IC50 [1] of 0.3 nM and a GI50 (BaF3-Del_TM_CS cells) of 3.56 nM. The GI50 (BaF3-LR_TM_CS cells) was 30.5 nM, the IC50 [2] was 0.18 nM and the IC50 [3] was 4.4 nM.

With `CN1CCN(C2CCN(c3ccc(Nc4ncc(Cl)c(Nc5cccc6c5N(S(C)(=O)=O)CC6)n4)c4c3CCO4)CC2)CC1` [Example 49, 5-chloro-N^2-(4-(4-(4-methylpiperazin-1-yl)piperidin-1-yl)-2,3-dihydrobenzofuran-7-yl)-N^4-(1-(methylsulfonyl)indolin-7-yl)pyrimidine-2,4-diamine] the GI50 (BaF3-WT cells) was 1510 nM, the IC50 [1] was 0.95 nM and the GI50 (BaF3-Del_TM_CS cells) was 19.3 nM. For the same molecule, the GI50 (BaF3-LR_TM_CS cells) was 79.3 nM, the IC50 [2] was 0.45 nM and the IC50 [3] was 3.8 nM.

With `CN1CCN(C2CCN(c3ccc(Nc4ncc(Br)c(Nc5cccc6c5N(S(C)(=O)=O)CC6)n4)c4c3CCO4)CC2)CC1` [Example 50, 5-bromo-N^2-(4-(4-(4-methylpiperazin-1-yl)piperidin-1-yl)-2,3-dihydrobenzofuran-7-yl)-N^4-(1-(methylsulfonyl)indolin-7-yl)pyrimidine-2,4-diamine] the GI50 (BaF3-WT cells) was 2730 nM, the IC50 [1] was 1 nM and the GI50 (BaF3-Del_TM_CS cells) was 19 nM. It also gave a GI50 (BaF3-LR_TM_CS cells) of 176 nM, an IC50 [2] of 0.63 nM and an IC50 [3] of 14 nM.

In the case of `CN(C)C1CCN(c2ccc(Nc3ncc(Cl)c(Nc4cccc5c4N(S(C)(=O)=O)CC5)n3)c3c2OCO3)CC1` [Example 51, 5-chloro-N2-(7-(4-(dimethylamino)piperidin-1-yl)benzo[d][1,3]dioxol-4-yl)-N4-(1-(methylsulfonyl)indolin-7-yl)pyrimidine-2,4-diamine], the GI50 (BaF3-WT cells) is reported as 235 nM, the IC50 [1] is reported as 0.8 nM and the GI50 (BaF3-Del_TM_CS cells) is reported as 10.1 nM. For the same molecule, the GI50 (BaF3-LR_TM_CS cells) was 35.9 nM, the IC50 [2] was 0.19 nM and the IC50 [3] was 4.2 nM.

For `CN(C)C1CCN(c2ccc(Nc3ncc(Br)c(Nc4cccc5c4N(S(C)(=O)=O)CC5)n3)c3c2OCO3)CC1` [Example 52, 5-bromo-N^2-(7-(4-(dimethylamino)piperidin-1-yl)benzo[d][1,3]dioxol-4-yl)-N^4-(1-(methylsulfonyl)indolin-7-yl)pyrimidine-2,4-diamine], the GI50 (BaF3-WT cells) was 145 nM, the IC50 [1] was 0.42 nM and the GI50 (BaF3-Del_TM_CS cells) was 11.2 nM. It also gave a GI50 (BaF3-LR_TM_CS cells) of 18.7 nM, an IC50 [2] of 0.12 nM and an IC50 [3] of 5.5 nM.

With `CN(C)C1CCN(c2ccc(Nc3ncc(Br)c(Nc4cccc5c4N(S(C)(=O)=O)CC5)n3)c3c2OCCO3)CC1` [Example 54, 5-bromo-N^2-(8-(4-(dimethylamino)piperidin-1-yl)-2,3-dihydrobenzo[b][1,4]dioxin-5-yl)-N^4-(1-(methylsulfonyl)indolin-7-yl)pyrimidine-2,4-diamine] the GI50 (BaF3-WT cells) was 372 nM, the IC50 [1] was 0.25 nM and the GI50 (BaF3-Del_TM_CS cells) was 18.6 nM. The GI50 (BaF3-LR_TM_CS cells) was 42.4 nM, the IC50 [2] was 0.16 nM and the IC50 [3] was 4.8 nM.

With `COc1cc(N2CCC(N3CCN(C)CC3)CC2)ccc1Nc1nc(Nc2cccc3c2N(S(C)(=O)=O)CC3)c2[nH]ccc2n1` [Example 71, N^2-(2-methoxy-4-(4-(4-methylpiperazin-1-yl)piperidin-1-yl)phenyl)-N^4-(1-(methylsulfonyl)indolin-7-yl)-5H-pyrrolo[3,2-d]pyrimidine-2,4-diamine] the GI50 (BaF3-WT cells) was 2210 nM, the IC50 [1] was 143 nM and the GI50 (BaF3-Del_TM_CS cells) was 920 nM. For the same molecule, the GI50 (BaF3-LR_TM_CS cells) was 1470 nM, the IC50 [2] was 133 nM and the IC50 [3] was 623 nM.

For `COc1cc(N2CCC(N3CCN(C)CC3)CC2)ccc1Nc1nc(Nc2cccc3c2N(S(C)(=O)=O)CC3)c2nc[nH]c2n1` [Example 72, N^2-(2-methoxy-4-(4-(4-methylpiperazin-1-yl)piperidin-1-yl)phenyl)-N^6-(1-(methylsulfonyl)indolin-7-yl)-9H-purine-2,6-diamine], the GI50 (BaF3-WT cells) was 2600 nM, the IC50 [1] was 1.4 nM and the GI50 (BaF3-Del_TM_CS cells) was 246 nM. The GI50 (BaF3-LR_TM_CS cells) was 2200 nM, the IC50 [2] was 1.3 nM and the IC50 [3] was 3.1 nM.

In the case of `COc1cc(N2CCC(N3CCN(C)CC3)CC2)ccc1Nc1nc(Nc2cccc3c2N(S(C)(=O)=O)CC3)c2c(Cl)c[nH]c2n1` [Example 73, 5-chloro-N^2-(2-methoxy-4-(4-(4-methylpiperazin-1-yl)piperidin-1-yl)phenyl)-N^4-(1-(methylsulfonyl)indolin-7-yl)-7H-pyrrolo[2,3-d]pyrimidine-2,4-diamine], the GI50 (BaF3-WT cells) is reported as 853 nM, the IC50 [1] is reported as 0.61 nM and the GI50 (BaF3-Del_TM_CS cells) is reported as 27.4 nM. It also gave a GI50 (BaF3-LR_TM_CS cells) of 141 nM, an IC50 [2] of 1.6 nM and an IC50 [3] of 4.7 nM.
